# In patent US7435751B2, “7-Fluoro-1,3-dihydro-indol-2-one oxazolidinones as antibacterial agents” (priority 2005, dated 2008):
# Experiments:
# S. aureus (LORSA) = experiment: In vitro antibacterial activity, MIC90 against S. aureus (LORSA); type: cell-based; conditions: Staphylococcus aureus
# Source text: (§1) The in vitro antibacterial activity of the compounds of the present invention may be assessed by following procedures recommended in (1) National Committee for Clinical Laboratory Standards (January 2003), Methods for dilution antimicrobial tests for bacteria that grow aerobically, Approved Standard (6th ed), M7-A6, NCCLS, Wayne, Pa.; (2) National Committee for Clinical Laboratory Standards (March 2001), Methods for antimicrobial susceptibility testing of anaerobic bacteria, Approved Standard (5th ed), M11-A4, NCCLS, Wayne, Pa.; (3) National Committee for Clinical Laboratory Standards (Jan. 2003), MIC testing supplemental tables, M100-S13 (for use with M7-A6), NCCLS, Wayne, Pa.; and (4) Murray P R, Baron E J, Jorgensen J H, et al. Manual of Clinical Microbiology (8th ed) Washington, D.C.: American Society for Microbiology Press, 2003. The antibacterial activity can be presented in the form of MIC value. The MIC value is the lowest concentration of drug which prevented macroscopically visible growth under the conditions of the test.
# E. faecium (VREF) = experiment: In vitro antibacterial activity, MIC90 against E. faecium (VREF); type: cell-based; conditions: Enterococcus faecium
# Source text: as §1
# E. faecalis (VREF) = experiment: In vitro antibacterial activity, MIC90 against E. faecalis (VREF); type: cell-based; conditions: Enterococcus faecalis
# Source text: as §1
# MAO-B = target: T1, MAO-B (Homo sapiens, UniProt P27338); experiment: Monoamine oxidase B inhibition (conversion of MAO substrate to dihydropyridinium metabolite); type: biochemical; conditions: substrate at Km 43 μM; MAO-B 0.008 mg/mL
# T1 sequence (P27338 1-520): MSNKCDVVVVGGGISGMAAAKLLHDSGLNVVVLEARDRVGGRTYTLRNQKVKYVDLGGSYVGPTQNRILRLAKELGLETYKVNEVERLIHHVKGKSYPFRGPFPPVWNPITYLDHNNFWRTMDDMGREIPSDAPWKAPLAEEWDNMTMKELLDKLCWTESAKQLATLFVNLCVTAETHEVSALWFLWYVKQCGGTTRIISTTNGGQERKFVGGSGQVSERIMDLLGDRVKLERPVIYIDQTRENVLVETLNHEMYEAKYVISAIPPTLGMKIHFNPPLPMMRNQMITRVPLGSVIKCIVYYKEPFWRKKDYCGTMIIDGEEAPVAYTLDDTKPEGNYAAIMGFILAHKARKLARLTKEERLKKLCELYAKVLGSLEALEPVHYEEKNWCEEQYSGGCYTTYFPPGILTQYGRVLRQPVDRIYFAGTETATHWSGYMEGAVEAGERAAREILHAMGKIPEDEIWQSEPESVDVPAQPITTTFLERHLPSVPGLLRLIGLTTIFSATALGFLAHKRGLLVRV
# Experimental: (§2) Following procedure may assess monoamine oxidase inhibition activity of the compounds of the present invention:
# (§3) MAO-A and B inhibition were analyzed by measuring the inhibition of conversion of an MAO substrate, 1-methyl-4-(1-methyl-2-pyrryl)-1,2,3,6-tetrahydropyridine, to its dihydropyridinium metabolite (λ=421 nm). The substrate concentration was equal to the Km (64 μM for MAO-A and 43 μM for MAO-B). The MAO-A concentration was 0.01 mg/mL, and the MAO-B concentration was 0.008 mg/mL. Each inhibitor was tested at seven concentrations. Percent inhibition at each concentration was established relative to the uninhibited control rate, and the IC50 and Ki values were calculated.
# S. pneumoniae (LRSA) = experiment: In vitro antibacterial activity, MIC90 against S. pneumoniae (LRSA); type: cell-based; conditions: Streptococcus pneumoniae
# Source text: as §1
# MAO-A = target: T2, MAO-A (Homo sapiens, UniProt P21397); experiment: Monoamine oxidase A inhibition (conversion of MAO substrate to dihydropyridinium metabolite); type: biochemical; conditions: substrate at Km 64 μM; MAO-A 0.01 mg/mL
# T2 sequence (P21397 1-527): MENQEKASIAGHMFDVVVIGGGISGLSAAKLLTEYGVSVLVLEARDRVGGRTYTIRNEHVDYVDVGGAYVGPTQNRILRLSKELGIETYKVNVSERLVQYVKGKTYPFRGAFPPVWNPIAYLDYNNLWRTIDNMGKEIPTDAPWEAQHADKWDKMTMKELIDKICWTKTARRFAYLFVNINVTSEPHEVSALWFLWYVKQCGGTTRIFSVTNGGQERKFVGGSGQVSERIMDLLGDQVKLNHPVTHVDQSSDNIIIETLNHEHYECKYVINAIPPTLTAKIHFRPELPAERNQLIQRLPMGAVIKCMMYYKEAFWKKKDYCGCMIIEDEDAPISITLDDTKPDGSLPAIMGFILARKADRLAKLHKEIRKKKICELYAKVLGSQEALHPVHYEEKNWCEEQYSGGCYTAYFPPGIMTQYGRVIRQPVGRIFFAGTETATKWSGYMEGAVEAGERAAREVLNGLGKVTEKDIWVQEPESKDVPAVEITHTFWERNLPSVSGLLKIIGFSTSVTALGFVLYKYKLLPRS
# Experimental: as §2, §3
# S. pneumoniae SV1 SP-3 = experiment: In vitro antibacterial activity against S. pneumoniae SV1 SP-3; type: cell-based; conditions: Streptococcus pneumoniae, SV1SP3; strain SV1 SP-3
# Source text: as §1
# E. faecalis MGH-2 EF 1-1 = experiment: In vitro antibacterial activity against E. faecalis MGH-2 EF 1-1; type: cell-based; conditions: Enterococcus faecalis, MGH2EF11; strain MGH-2 EF 1-1
# Source text: as §1
# S. aureus UC-76 SA-1 = experiment: In vitro antibacterial activity against S. aureus UC-76 SA-1; type: cell-based; conditions: Staphylococcus aureus, UC76; strain UC-76 SA-1
# Source text: as §1
Compound,MIC90 (S. aureus (LORSA)) [mg/L],MIC90 (E. faecium (VREF)) [mg/L],MIC90 (E. faecalis (VREF)) [mg/L],Ki (MAO-B) [µM],MIC90 (S. pneumoniae (LRSA)) [mg/L],Ki (MAO-A) [µM],MIC90 (S. pneumoniae SV1 SP-3) [mg/L],MIC90 (E. faecalis MGH-2 EF 1-1) [mg/L],MIC90 (S. aureus UC-76 SA-1) [mg/L]
"COC(=O)NC[C@H]1CN(c2cc(F)c3c(c2)CC(=O)N3C)C(=O)O1 [Example 1, (5S)-[3-(7-fluoro-1-methyl-2-oxo-2,3-dihydro-1H-indol-5-yl)-2-oxo-oxazolidin-5-ylmethyl]-carbamic acid methyl ester]",4,4,4,52.6,4,722,–,–,–
"COC(=O)NC[C@H]1CN(c2cc(F)c3c(c2)CC(=O)N3C(C)C)C(=O)O1 [Example 2, (5S)-[3-(7-fluoro-1-isopropyl-2-oxo-2,3-dihydro-1H-indol-5-yl)-2-oxo-oxazolidin-5-ylmethyl]-carbamic acid methyl ester]",4,2,2,3.17,2,> 500,–,–,–
"CCN1C(=O)Cc2cc(N3C[C@H](CNC(=O)OC)OC3=O)cc(F)c21 [Example 3, (S)-[3-(1-ethyl-7-fluoro-2-oxo-2,3-dihydro-1H-indol-5-yl)-2-oxo-oxazolidin-5-ylmethyl]-carbamic acid methyl ester]",–,–,–,–,–,–,4,2,4
"COC(=O)NC[C@H]1CN(c2cc(F)c3c(c2)CC(=O)N3CCF)C(=O)O1 [Example 4, (S)-{3-[7-fluoro-1-(2-fluoro-ethyl)-2-oxo-2,3-dihydro-1H-indol-5-yl]-2-oxo-oxazolidin-5-ylmethyl}-carbamic acid methyl ester]",–,–,–,–,–,–,4,2,4
"CCCN1C(=O)Cc2cc(N3C[C@H](CNC(=O)OC)OC3=O)cc(F)c21 [Example 5, (S)-[3-(7-fluoro-2-oxo-1-propyl-2,3-dihydro-1H-indol-5-yl)-2-oxo-oxazolidin-5-ylmethyl]-carbamic acid methyl ester]",–,–,–,–,–,–,4,8,8
"COC(=O)NC[C@H]1CN(c2cc(F)c3c(c2)CC(=O)N3C2CC2)C(=O)O1 [Example 6, (S)-[3-(1-cyclopropyl-7-fluoro-2-oxo-2,3-dihydro-1H-indol-5-yl)-2-oxo-oxazolidin-5-ylmethyl]-carbamic acid methyl ester]",–,–,–,–,–,–,8,8,8
"COC(=O)NC[C@H]1CN(c2cc(F)c3c(c2)CC(=O)N3CC2CC2)C(=O)O1 [Example 7, (S)-[3-(1-cyclopropylmethyl-7-fluoro-2-oxo-2,3-dihydro-1H-indol-5-yl)-2-oxo-oxazolidin-5-ylmethyl]-carbamic acid methyl ester]",–,–,–,–,–,–,4,4,4
